Values quoted from earlier work as cited in US6909021B2, “Method of extracting lutein from green plant materials” (Alfalfa America, Inc., priority 2003, dated 2005).

Experiments:
[1] = tested on: age-related macular degeneration (AMD); conditions: dietary intake
[2] = water wash of green protein chloroplast fraction

| solubility in water [2] | Molecule | effect on the rate of AMD [1] |
| --- | --- | --- |
|  | [Zn] [zinc] | not seen to have an effect |
| very little solubility | CC1=C[C@H](O)CC(C)(C)[C@H]1/C=C/C(C)=C/C=C/C(C)=C/C=C/C=C(C)/C=C/C=C(C)/C=C/C1=C(C)C[C@@H](O)CC1(C)C [Lutein] |  |
|  | vitamin A | not seen to have an effect |
|  | CC1=C(/C=C/C(C)=C/C=C/C(C)=C/C=C/C=C(C)/C=C/C=C(C)/C=C/C2=C(C)CCCC2(C)C)C(C)(C)CCC1 [Beta-carotene] | not seen to have an effect |
|  | vitamin E | not seen to have an effect |
